pIC50: −log10 of the molar value.
Legend:
[1] = target: Xanthine dehydrogenase/oxidase (Bos taurus, UniProt P80457); test: Xanthine Oxidase Activity; conditions: pH 7.6; 25 °C
Procedure: The enzyme was preincubated with test compound, dissolved in DMSO (1% v/v), for 5 min and the reaction was initiated by the addition of xanthine.

Alpha-glucosidase MAL12 = Alpha-glucosidase MAL12 (Saccharomyces cerevisiae (strain ATCC 204508 / S288c), UniProt P53341); test: Alpha-Glucosidase Assay
Procedure: The assay was performed using isolated phenolics from maize, and inhibition was determined according to previously described method.

Xanthine dehydrogenase/oxidase, sequence (P80457 whole entry): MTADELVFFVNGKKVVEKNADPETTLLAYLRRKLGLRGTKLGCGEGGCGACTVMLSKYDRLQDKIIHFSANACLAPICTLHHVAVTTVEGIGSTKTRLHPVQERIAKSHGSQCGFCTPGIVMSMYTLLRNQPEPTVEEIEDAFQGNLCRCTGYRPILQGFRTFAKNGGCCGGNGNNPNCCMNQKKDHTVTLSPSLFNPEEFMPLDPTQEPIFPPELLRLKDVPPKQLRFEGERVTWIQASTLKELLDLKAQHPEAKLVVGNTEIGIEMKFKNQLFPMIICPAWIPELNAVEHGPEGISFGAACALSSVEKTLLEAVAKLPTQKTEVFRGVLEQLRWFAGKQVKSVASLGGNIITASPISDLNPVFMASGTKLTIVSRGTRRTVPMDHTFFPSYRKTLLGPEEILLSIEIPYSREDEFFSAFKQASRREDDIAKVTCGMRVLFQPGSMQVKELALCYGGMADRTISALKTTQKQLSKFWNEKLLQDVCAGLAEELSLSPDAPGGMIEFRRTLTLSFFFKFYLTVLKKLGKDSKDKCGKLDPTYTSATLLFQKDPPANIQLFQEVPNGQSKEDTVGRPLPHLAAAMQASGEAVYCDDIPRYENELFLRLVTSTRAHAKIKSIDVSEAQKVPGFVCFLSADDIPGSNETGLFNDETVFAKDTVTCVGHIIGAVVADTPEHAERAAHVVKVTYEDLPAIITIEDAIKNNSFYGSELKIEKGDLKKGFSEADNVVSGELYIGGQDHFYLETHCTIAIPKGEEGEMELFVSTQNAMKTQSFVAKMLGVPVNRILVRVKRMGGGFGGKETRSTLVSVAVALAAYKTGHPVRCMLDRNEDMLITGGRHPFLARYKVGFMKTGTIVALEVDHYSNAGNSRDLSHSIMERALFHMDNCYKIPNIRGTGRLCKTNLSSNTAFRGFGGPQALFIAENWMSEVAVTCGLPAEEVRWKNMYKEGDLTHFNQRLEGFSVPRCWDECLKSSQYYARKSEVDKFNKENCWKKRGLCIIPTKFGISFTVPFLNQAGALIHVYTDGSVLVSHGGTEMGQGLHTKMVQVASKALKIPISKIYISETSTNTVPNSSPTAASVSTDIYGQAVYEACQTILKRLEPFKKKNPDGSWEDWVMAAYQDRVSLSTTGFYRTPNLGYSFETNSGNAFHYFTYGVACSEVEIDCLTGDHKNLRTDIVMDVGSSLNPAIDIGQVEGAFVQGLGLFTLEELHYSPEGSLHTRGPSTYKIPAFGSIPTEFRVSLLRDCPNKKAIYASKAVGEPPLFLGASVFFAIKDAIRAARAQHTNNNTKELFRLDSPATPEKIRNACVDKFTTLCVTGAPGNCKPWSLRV
Alpha-glucosidase MAL12, sequence (P53341 whole entry): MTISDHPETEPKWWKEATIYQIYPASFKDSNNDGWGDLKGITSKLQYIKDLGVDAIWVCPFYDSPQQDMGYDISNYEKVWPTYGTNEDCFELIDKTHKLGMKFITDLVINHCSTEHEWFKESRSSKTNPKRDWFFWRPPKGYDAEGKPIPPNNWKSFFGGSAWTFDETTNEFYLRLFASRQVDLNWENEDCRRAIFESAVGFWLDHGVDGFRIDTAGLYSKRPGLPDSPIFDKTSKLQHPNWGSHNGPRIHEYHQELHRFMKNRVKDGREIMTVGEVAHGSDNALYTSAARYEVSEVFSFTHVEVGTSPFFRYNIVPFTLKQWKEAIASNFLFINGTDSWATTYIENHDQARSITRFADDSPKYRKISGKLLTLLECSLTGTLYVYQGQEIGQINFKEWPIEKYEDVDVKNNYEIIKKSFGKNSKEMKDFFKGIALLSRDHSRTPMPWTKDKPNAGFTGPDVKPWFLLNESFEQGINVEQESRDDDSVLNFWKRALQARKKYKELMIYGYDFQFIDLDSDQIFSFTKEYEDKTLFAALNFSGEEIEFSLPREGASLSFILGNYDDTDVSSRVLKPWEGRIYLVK

| pIC50 [1] | pIC50 (Alpha-glucosidase MAL12) | SMILES |
| --- | --- | --- |
| 5.09 | 3.60 | COc1cc(/C=C/C(=O)O)ccc1O [Ferulic acid (M5)] |
| 5.15 | 3.70 | O=c1cc(O)cc2oc(-c3ccc(O)cc3)c(OC3OC(CO)C(O)C(O)C3O)cc1-2 [5,7‐dihydroxy‐2‐(4‐hydroxyphenyl)‐3‐ {[(2S,3R,4S,5S,6R)‐3,4,5‐trihydroxy‐6‐ (hydroxymethyl)oxan‐2‐yl]oxy}‐1λ⁴‐chromen‐1‐ylium] |
| 5.19 | 3.95 | O=C(O)c1c(O)cc(O)cc1O [2,4,6-trihydroxybenzoic acid (M3)] |
| 5.06 | 3.58 | COc1cc(-c2oc3cc(O)cc(=O)c-3cc2OC2OC(CO)C(O)C(O)C2O)ccc1O [5,7‐dihydroxy‐2‐(4‐hydroxy‐3‐methoxyphenyl)‐3‐ {[(2S,3R,4S,5S,6R)‐3,4,5‐trihydroxy‐6‐ (hydroxymethyl)oxan‐2‐yl]oxy}‐1λ⁴‐chromen‐1‐ylium] |
| 5.14 | 3.66 | O=c1cc(O)cc2oc(-c3ccc(O)c(O)c3)c(OC3OC(CO)C(O)C(O)C3O)cc1-2 (stereo not drawn) [Cyanidin-3-glucoside (M8)] |
| 5.17 | 4.04 | O=C(O)/C=C/c1ccc(O)cc1 [p-Coumaric Acid] |
| 5.07 | 3.61 | CC[C@H]1O[C@@H](Oc2c(-c3ccc(O)c(OC)c3)oc3cc(O)cc(=O)c-3c2O)[C@H](O)[C@@H](O)[C@@H]1O [3‐{[(2S,3R,4S,5S,6R)‐6‐ethyl‐3,4,5‐trihydroxyoxan‐2‐ yl]oxy}‐5,7‐dihydroxy‐2‐(4‐hydroxy‐3‐ methoxyphenyl)‐4H‐chromen‐4‐one] |

| SMILES | pIC50 [1] | pIC50 (Alpha-glucosidase MAL12) |
| --- | --- | --- |
| O=C(O)c1ccc(O)c(O)c1 [Protocatechuic acid (M1)] | 5.24 | 4.07 |
| COc1cc(C(=O)O)ccc1O [4-hydroxy-3-methoxybenzoic acid] | 5.07 | 3.69 |
